Patent US11730836B2, “Synergistic cancer treatment” (priority 2018, dated 2023)

Test system: CAPAN-1 xenografts
Experiment: CAPAN-1 xenografts, BRCA 2 deficient (−/−) compared with not deficient (+/+): single dose PLX038A or irinotecan, tumor volume
Assay type: in vivo, mice
Details: irinotecan 137 μg/kg single i.p.; FIGS. 4B vs 4C
Description: Female NCr nude mice (N CrTac:NCr-Foxnt1^nu; ˜6-7 weeks old) from Taconic Bioscience (Cambridge City, Ind.) were housed at the UCSF Preclinical Therapeutics Core vivarium (San Francisco, Calif.). All animal studies were carried out in accordance with UCSF Institutional Animal Care and Use Committee. Tumor xenografts were established by subcutaneous injection with MX-1 tumor cells (2×10^6 cells in 100 μl of serum free medium mixed 1:1 with Matrigel) into the right flank of female NCr nude mice.
Groups (N=4-5/group) were dosed when the group average reached 100-200 mm^3 in size. […] For groups receiving the combination, daily BMN673 dosing began on the same day (FIG. 3A) or after a 4-day delay (FIG. 3B) after dosing PLX038A. Tumor volumes (caliper measurement: 0.5×(length×width^2)) and body weights were measured twice weekly. When vehicle control tumors reached ˜3000 mm^3 in size, mice were treated with the combination of a single dose of PLX038A (15 μmol/kg) and daily BMN673 (0.4 μmol/kg) combination with no delay between dosing (FIG. 3A).
MX-1 cells are BRCA 1 deficient and CAPAN-1 cells are supplied as either BRCA 2 deficient (−/−) or not deficient (+/+).

CCc1c2c(nc3ccc(OC(=O)N4CCC(N5CCCCC5)CC4)cc13)-c1cc3c(c(=O)n1C2)COC(=O)[C@]3(O)CC [irinotecan]
effectiveness in BRCA 2 deficient vs non-deficient cells, irinotecan: enhanced
